{
  "source": "patent US4293489A",
  "about": "“Derivatives of A-30912A nucleus” (Eli Lilly and Company, priority 1980, dated 1981)",
  "key": {"[1]": {"experiment": "Toxicity on intravenous administration to a dog", "format": "in vivo", "conditions": "100 mg/kg per day for five days"}, "in vivo": {"experiment": "in vivo", "conditions": "mouse, po, 416 mg/kg", "quoted_text": "In this test, mice are gavaged with a dose of 416 mg/kg of the test compound suspended in 33% PEG 400-water. At time intervals, blood samples are taken from the orbital sinus and are assayed for antibiotic activity as follows: A 7 mm. disc containing 20 μl of whole blood is placed on agar seeded with Aspergillus montevidensis A35137. After 40 hours incubation at 30° C. zones of inhibition from the blood samples are compared to a standard obtained from the test compound, and the amount of compound in the blood sample is calculated."}, "Neurospora crassa 846": {"tested_on": "Neurospora crassa 846", "experiment": "Agar plate disc diffusion test, zone of inhibition", "format": "cell-based", "method": "(§1) Tables 10 and 11 give the results of the testing in vitro of the compounds of Examples 3 and 4 by agar-plate disc-diffusion methods. In Table 10 activity is measured by the size (diameter in mm) of the observed zone of inhibition of the microorganism produced by the test compound. In Table 11, activity is measured by the minimal inhibitory concentration (MIC) of the substance (μg/disc) required to inhibit growth of the test organism. Table 12 gives the results of the testing in vitro of the p-(n-octyloxy)benzoyl derivative of A30912A nucleus [Formula III, R^1 is p-(n-octyloxy)benzoyl] against five strains of Candida albicans by the agar dilution method. In Table 12 activity is measured by the minimal inhibitory concentration (MIC) of the substance (μg/ml) required to inhibit the test organism.\n(§2) ^(a) Compounds were tested as suspension in methanol. The compounds\n(§3) were tested at a concentration of 1 mg/ml. by dipping a 7mm disc into the\n(§4) suspension and placing it on the agar surface. Incubation: 24-48 hours at\n(§5) *Measurable zone of inhibition with regrowth of organism around disc."}, "Candida albicans A-26": {"tested_on": "Candida albicans A-26", "experiment": "Agar plate disc diffusion test, zone of inhibition", "format": "cell-based", "conditions": "1 mg/ml suspension in methanol, 7mm disc; 24-48 hours at 25-37° C.", "method": "as §1, §2, §3, §4, §5"}, "[2]": {"tested_on": "Trichophyton mentagraphytes A-23", "experiment": "Agar plate disc diffusion test, zone of inhibition", "format": "cell-based, Trichophyton mentagrophytes", "method": "as §1, §2, §3, §4, §5"}, "[3]": {"tested_on": "Saccharomyces pastoranius X-52", "experiment": "Agar plate disc diffusion test, zone of inhibition", "format": "cell-based, Saccharomyces pastorianus", "method": "as §1, §2, §3, §4, §5"}, "[4]": {"conditions": "Neurospora crassa, 846, 1 mg/ml suspension in methanol, 7mm disc, 24-48 hours at 25-37° C., read-out: Size of Zone of Inhibition"}, "[5]": {"conditions": "X52, 1 mg/ml suspension in methanol, 7mm disc, 24-48 hours at 25-37° C., read-out: Size of Zone of Inhibition"}},
  "note": "Read-outs that look alike come from different tables or passages of the source. Starred links: 1 amine or outer side, 2 acyl side, 3 side chain; linkers in the order of their positions; H or OH if unused. Positions of bridges follow the written chain, without caps; N, C: chain ends. Non-standard residues stand in square brackets, D forms with d. Residues, ends and D or L forms follow the SMILES beside them. *: point of attachment. Orn(4R-OH,5R-OH) = O=C([C@H](C[C@@H](O)[C@@H](O)N[*:3])N[*:1])[*:2]; hTyr(3S-OH,4S-OH) = N[C@H](C(=O)O)[C@H](O)[C@@H](O)c1ccc(O)cc1; Benzoyl(4-OC10H21) = CCCCCCCCCCOc1ccc(C(=O)*)cc1; Pro(3S-OH,4S-Me) = C[C@H]1CN[C@H](C(=O)O)[C@H]1O; Benzoyl(4-octyloxy) = CCCCCCCCOc1ccc(C(=O)*)cc1; X2 = CCCCCCCCCCCCCCS(=O)(=O)c1ccc(C(=O)*)cc1; X4 = CCCCCCCCCCS(=O)(=O)c1ccc(C(=O)*)cc1; Hyp = O=C(O)[C@@H]1C[C@@H](O)CN1; X6 = CCCCCCCCCCSc1ccc(C(=O)*)cc1; X7 = CCCCCCCCSc1ccc(C(=O)*)cc1",
  "data": [
    {"molecule": "CCCCCCCCOc1ccc(C(=O)N[C@H]2C[C@@H](O)[C@@H](O)NC(=O)[C@@H]3[C@@H](O)[C@@H](C)CN3C(=O)[C@H]([C@@H](C)O)NC(=O)[C@H]([C@H](O)[C@@H](O)c3ccc(O)cc3)NC(=O)[C@@H]3C[C@@H](O)CN3C(=O)[C@H]([C@@H](C)O)NC2=O)cc1", "note": "[p-(n-octyloxy)benzoyl derivative of A-30912A nucleus] ({Benzoyl(4-octyloxy)}-[Orn(4R-OH,5R-OH)]T[Hyp][hTyr(3S-OH,4S-OH)]T[Pro(3S-OH,4S-Me)]; lactam 1-C)", "values": [
      {"measurement": "SGPT levels", "setting": "[1]", "value": "increased SGPT levels were observed"},
      {"measurement": "outward signs of toxicity", "setting": "[1]", "value": "no outward signs of toxicity"}
    ]},
    {"molecule": "CCCCCCCCCCSc1ccc(C(=O)N[C@H]2C[C@@H](O)[C@@H](O)NC(=O)[C@@H]3[C@@H](O)[C@@H](C)CN3C(=O)[C@H]([C@@H](C)O)NC(=O)[C@H]([C@H](O)[C@@H](O)c3ccc(O)cc3)NC(=O)[C@@H]3C[C@@H](O)CN3C(=O)[C@H]([C@@H](C)O)NC2=O)cc1", "note": "[drawing 186] (X6-[Orn(4R-OH,5R-OH)]T[Hyp][hTyr(3S-OH,4S-OH)]T[Pro(3S-OH,4S-Me)]; lactam 1-C)", "values": [
      {"measurement": "Cmax", "setting": "in vivo", "value": 5000, "unit": "ng/mL"}
    ]},
    {"molecule": "CCCCCCCCCCOc1ccc(C(=O)N[C@H]2C[C@@H](O)[C@@H](O)NC(=O)[C@@H]3[C@@H](O)[C@@H](C)CN3C(=O)[C@H]([C@@H](C)O)NC(=O)[C@H]([C@H](O)[C@@H](O)c3ccc(O)cc3)NC(=O)[C@@H]3C[C@@H](O)CN3C(=O)[C@H]([C@@H](C)O)NC2=O)cc1", "note": "[drawing 182] ({Benzoyl(4-OC10H21)}-[Orn(4R-OH,5R-OH)]T[Hyp][hTyr(3S-OH,4S-OH)]T[Pro(3S-OH,4S-Me)]; lactam 1-C)", "values": [
      {"measurement": "Cmax", "setting": "in vivo", "value": "< 100", "unit": "ng/mL"}
    ]},
    {"molecule": "CCCCCCCCCCS(=O)(=O)c1ccc(C(=O)N[C@H]2C[C@@H](O)[C@@H](O)NC(=O)[C@@H]3[C@@H](O)[C@@H](C)CN3C(=O)[C@H]([C@@H](C)O)NC(=O)[C@H]([C@H](O)[C@@H](O)c3ccc(O)cc3)NC(=O)[C@@H]3C[C@@H](O)CN3C(=O)[C@H]([C@@H](C)O)NC2=O)cc1", "note": "[drawing 112] (X4-[Orn(4R-OH,5R-OH)]T[Hyp][hTyr(3S-OH,4S-OH)]T[Pro(3S-OH,4S-Me)]; lactam 1-C)", "values": [
      {"measurement": "zone of inhibition at 1000 µg/mL", "setting": "Neurospora crassa 846; [4]", "value": 31, "unit": "mm"},
      {"measurement": "Size of Zone of Inhibition", "setting": "Candida albicans A-26", "value": 55, "unit": "mm"},
      {"measurement": "zone of inhibition at 1000 µg/mL", "setting": "[2]; A23, 1 mg/ml suspension in methanol, 7mm disc, 24-48 hours at 25-37° C., read-out: Size of Zone of Inhibition", "value": 32, "unit": "mm"},
      {"measurement": "zone of inhibition at 1000 µg/mL", "setting": "[3]; [5]", "value": 16, "unit": "mm"}
    ]},
    {"molecule": "CCCCCCCCSc1ccc(C(=O)N[C@H]2C[C@@H](O)[C@@H](O)NC(=O)[C@@H]3[C@@H](O)[C@@H](C)CN3C(=O)[C@H]([C@@H](C)O)NC(=O)[C@H]([C@H](O)[C@@H](O)c3ccc(O)cc3)NC(=O)[C@@H]3C[C@@H](O)CN3C(=O)[C@H]([C@@H](C)O)NC2=O)cc1", "note": "[drawing 185] (X7-[Orn(4R-OH,5R-OH)]T[Hyp][hTyr(3S-OH,4S-OH)]T[Pro(3S-OH,4S-Me)]; lactam 1-C)", "values": [
      {"measurement": "Cmax", "setting": "in vivo", "value": "< 100", "unit": "ng/mL"}
    ]},
    {"molecule": "CCCCCCCCOc1ccc(C(=O)N[C@H]2C[C@@H](O)[C@@H](O)NC(=O)[C@@H]3[C@@H](O)[C@@H](C)CN3C(=O)[C@H]([C@@H](C)O)NC(=O)[C@H]([C@H](O)[C@@H](O)c3ccc(O)cc3)NC(=O)[C@@H]3C[C@@H](O)CN3C(=O)[C@H]([C@@H](C)O)NC2=O)cc1", "note": "[drawing 108] ({Benzoyl(4-octyloxy)}-[Orn(4R-OH,5R-OH)]T[Hyp][hTyr(3S-OH,4S-OH)]T[Pro(3S-OH,4S-Me)]; lactam 1-C)", "values": [
      {"measurement": "zone of inhibition at 1000 µg/mL", "setting": "Neurospora crassa 846; Neurospora crassa, 846, read-out: Size of Zone of Inhibition", "value": 23, "unit": "mm"},
      {"measurement": "Size of Zone of Inhibition", "setting": "Candida albicans A-26", "value": 28, "unit": "mm"},
      {"measurement": "zone of inhibition at 1000 µg/mL", "setting": "[3]; [5]", "value": 18, "unit": "mm"}
    ]},
    {"molecule": "CCCCCCCCCCCCCCS(=O)(=O)c1ccc(C(=O)N[C@H]2C[C@@H](O)[C@@H](O)NC(=O)[C@@H]3[C@@H](O)[C@@H](C)CN3C(=O)[C@H]([C@@H](C)O)NC(=O)[C@H]([C@H](O)[C@@H](O)c3ccc(O)cc3)NC(=O)[C@@H]3C[C@@H](O)CN3C(=O)[C@H]([C@@H](C)O)NC2=O)cc1", "note": "[drawing 114] (X2-[Orn(4R-OH,5R-OH)]T[Hyp][hTyr(3S-OH,4S-OH)]T[Pro(3S-OH,4S-Me)]; lactam 1-C)", "values": [
      {"measurement": "zone of inhibition at 1000 µg/mL", "setting": "Neurospora crassa 846; [4]", "value": 29, "unit": "mm"},
      {"measurement": "Size of Zone of Inhibition", "setting": "Candida albicans A-26", "value": 30, "unit": "mm"},
      {"measurement": "zone of inhibition at 1000 µg/mL", "setting": "[2]; A23, read-out: Size of Zone of Inhibition", "value": 23, "unit": "mm"},
      {"measurement": "zone of inhibition at 1000 µg/mL", "setting": "[3]; X52, read-out: Size of Zone of Inhibition", "value": 23, "unit": "mm"}
    ]}
  ]
}
